In KR20140032201A, “로리오라이드를 유효성분으로 함유하는 세포 노화 억제용 조성물” (영남대학교 산학협력단, priority 2012, dated 2014):
Like-named read-outs stand apart in the source and are kept apart here.

How the values were obtained:
[1] = system: Caenorhabditis elegans (꼬마선충); settings: C. elegans, literature; cited from earlier work
[2] = system: cellular senescence (세포노화); settings: cited from earlier work
mouse model (생쥐모델) = settings: literature; cited from earlier work
[3] = system: human fibroblasts (사람 섬유아세포); assay: MTT cytotoxicity, human fibroblasts; type: cell-based; settings: 10 ug/ml
[4] = system: reactive oxygen species in human fibroblasts (활성산소, 사람 섬유아세포); assay: Intracellular reactive oxygen species by DCF flow cytometry, adriamycin-treated human fibroblasts; type: cell-based; settings: 500 nM adriamycin 4 h, 3 days, DCF fluorescence
[5] = system: human umbilical vein endothelial cells (제대정맥혈관내피세포); assay: Adriamycin-induced senescence, SA-β-gal activity staining, umbilical vein endothelial cells; type: cell-based; settings: 500 nM adriamycin 4 h, then 10 ug/ml, 3 days
[6] = system: human fibroblasts with replicative senescence (복제노화가 유도된 사람 섬유아세포); assay: Replicative senescence, SA-β-gal activity staining, old human fibroblasts; type: cell-based; settings: increasing concentrations
[7] = system: human fibroblasts (사람 섬유아세포); assay: Adriamycin-induced senescence, SA-β-gal activity staining, human fibroblasts; type: cell-based
[8] = system: human umbilical vein endothelial cells (제대정맥혈관내피세포); assay: MTT cytotoxicity, umbilical vein endothelial cells; type: cell-based; settings: 10 ug/ml

Molecule: Nc1ccc(S(=O)(=O)c2ccc(N)cc2)cc1 [4,4'-diaminodiphenylsulfone]
- healthspan [1]: 건강수명을 늘리는
- occurrence of ageing-related diseases [1]: 노화관련 질환의 발생을 억제하며

Molecule: CO[C@H]1C[C@@H]2CC[C@@H](C)[C@@](O)(O2)C(=O)C(=O)N2CCCC[C@H]2C(=O)O[C@H]([C@H](C)C[C@@H]2CC[C@@H](O)[C@H](OC)C2)CC(=O)[C@H](C)/C=C(\C)[C@@H](O)[C@@H](OC)C(=O)[C@H](C)C[C@H](C)/C=C/C=C/C=C/1C [라파마이신(rapamycin), rapamycin]
- inhibition of cellular senescence ([2]; literature): 세포노화 억제 효능이 있는 것으로 보고된
- healthspan (mouse model (생쥐모델)): 건강수명을 늘리는
- occurrence of ageing-related diseases (mouse model (생쥐모델)): 노화관련 질환의 발생을 억제하며

Molecule: CC(=O)N[C@@H](CS)C(=O)O [N-아세틸시스테인(N-acetylcysteine), N-acetylcysteine]
- inhibition of cellular senescence ([2]; literature; NAC)): 세포노화 억제 효능이 있는 것으로 보고된
- inhibition of cellular senescence ([2]; literature): 세포노화를 억제한다

Molecule: CS(=O)(=O)Nc1ccc([N+](=O)[O-])cc1OC1CCCCC1 [NS398]
- inhibition of cellular senescence ([2]; literature): 세포노화를 억제한다

Molecule: epifriedelanol [에피프리에델라놀(epifriedelanol)]
- inhibition of cellular senescence ([2]; literature): 세포노화를 억제한다

Molecule: CC1(C)CC(O)CC2(C)OC(=O)C=C12 (single isomer, unassigned; (-)) [로리오라이드[(-)-loliolide], (-)-loliolide]
- cytotoxicity (MTT) [3]: 세포독성이 관찰되지 않았다
- reactive oxygen species increased by adriamycin [4]: 활성산소도 감소시킴
- SA-β-gal activity staining increased by adriamycin [5]: 변화가 없었다
- SA-β-gal activity increased in old cells (replicative senescence) [6]: 농도 의존적으로 늙은 세포에서 증가된 SA-β-gal 활성을 감소시킴
- SA-β-gal activity staining increased by adriamycin ([7]; 500 nM adriamycin 4 h, then 10 ug/ml, 3 days): 감소되었으나
- concentration dependence of inhibition of adriamycin-increased SA-β-gal activity ([7]; increasing concentrations): 농도를 증가시킬수록 감소함
- cytotoxicity (MTT) [8]: 세포독성이 관찰되지 않았다

Molecule: O=C1O[C@H]([C@@H](O)CO)C(O)=C1O [비타민 C]
- inhibition of cellular senescence ([2]; literature): 세포노화를 억제한다
